Laboratory results as given in US20110105434A1, “2-AMINO PURINE DERIVATIVES AND THEIR USE AS ANTI-HERPETIC AGENTS” (priority 2007, published 2011).

Test system: patient with Prinzmetal's angina
Assay: Prinzmetal's angina chest pain and blood pressure
Type: in vivo, human
Settings: 300 mg/kg per day
Protocol: Another effect of the treatment of this invention was reduction in chest pain. A patient with an autoimmune disease was experiencing severe chest pains or Prinzmetal's angina—a coronary artery spasm and associated cardiac ischemia. After taking high doses of anti-herpes drugs, but no drugs specifically for the heart, the patient reported a marked reduction in the symptoms of Prinzmetal's angina, specifically, 95% reduction in pain at 300 mg/kg of famciclovir per day.

In the case of CC(=O)OCC(CCn1cnc2cnc(N)nc21)COC(C)=O [famciclovir, 2-amino-9-(4-acetoxy-3-acetoxymethylbut-1-yl)purine], the “reduction in pain of Prinzmetal's angina” value is reported as 95% and the elevated blood pressure (blood pressure lowering medication reduced to a minimum) is reported as “no hypertension”.
